Assay results taken from the supplement of paper PMC10307832.

Columns and labels:
Assay in all cases: relative viability (nuclei count vs DMSO), 5 days (fraction); higher = more cells survive
Idelalisib = compound: CC[C@H](Nc1ncnc2[nH]cnc12)c1nc2cccc(F)c2c(=O)n1-c1ccccc1 [Idelalisib]
Method in brief: (§1)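 After an overnight hold at 37 °C, lung cancer cell lines in 1536-well plates were pinned with five library-drug doses (not always all listed), each √10 from the next, on vehicle-anchored plates. The cells stayed 5 days without fresh medium, then a one-step fix, permeabilisation and Hoechst stain preceded 4× imaging and MetaXpress nuclear counts. A plate passed only with control CV under 25% and at least one doubling. Viability is the median, over plates, of treated-well nuclei relative to vehicle-well nuclei.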

Pemetrexed = compound: Nc1nc2[nH]cc(CCc3ccc(C(=O)N[C@@H](CCC(=O)O)C(=O)O)cc3)c2c(=O)[nH]1 [Pemetrexed]
Method in brief: as §1

Idelalisib + Bortezomib = compound: CC[C@H](Nc1ncnc2[nH]cnc12)c1nc2cccc(F)c2c(=O)n1-c1ccccc1 [Idelalisib] + CC(C)C[C@H](NC(=O)[C@H](Cc1ccccc1)NC(=O)c1cnccn1)B(O)O [Bortezomib] (partner 0.002 µM)
Method in brief: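 Relative viability divides the nuclei count in treated wells by that in vehicle wells. Lung cancer cell lines were seeded in 1536-well plates, dosed by pin tool the next day, and fixed and stained after 5 days in one step with final 0.05% Triton X-100, 1% formaldehyde and 1 ug/ml Hoechst. Dosing was a single drug or a fixed anchor-drug dose plus five library-drug doses (not always all listed) in √10 steps, and values are medians of duplicate plates imaged at 4×.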

For UMC-11, the relative viability (Idelalisib; 0.04 µM) was 1.04, the relative viability (Idelalisib; 0.1265 µM) was 1.05 and the relative viability (Idelalisib; 0.4 µM) was 0.921. The relative viability (Idelalisib; 1.265 µM) was 1.01, the relative viability (Idelalisib; 4 µM) was 0.984 and the relative viability (Pemetrexed; 0.002 µM) was 0.996. It also gave a relative viability (Pemetrexed; 0.006325 µM) of 0.955, a relative viability (Pemetrexed; 0.02 µM) of 1.04 and a relative viability (Pemetrexed; 0.06325 µM) of 1.03. For the same cell line, the relative viability (Pemetrexed; 0.2 µM) was 0.846, the relative viability (Pemetrexed; 0.2 µM, anchor plate) was 0.805 and the relative viability (Idelalisib + Bortezomib; first compound 0.04 µM) was 0.477. For the same cell line, the relative viability (Idelalisib + Bortezomib; first compound 0.1265 µM) was 0.858, the relative viability (Idelalisib + Bortezomib; first compound 0.4 µM) was 0.744 and the relative viability (Idelalisib + Bortezomib; first compound 1.265 µM) was 0.771. It also gave a relative viability (Idelalisib + Bortezomib; first compound 4 µM) of 0.521.
